Earlier results on 2 compounds are cited in patent publication US8969340B2, “Methods for treating chronic pelvic pain syndrome” (Northwestern University, priority 2004, dated 2015).

The data set has as its target T1, CCR-2 receptor (Homo sapiens, UniProt P41597).
T1 sequence (P41597 1-360 isoform P41597-2): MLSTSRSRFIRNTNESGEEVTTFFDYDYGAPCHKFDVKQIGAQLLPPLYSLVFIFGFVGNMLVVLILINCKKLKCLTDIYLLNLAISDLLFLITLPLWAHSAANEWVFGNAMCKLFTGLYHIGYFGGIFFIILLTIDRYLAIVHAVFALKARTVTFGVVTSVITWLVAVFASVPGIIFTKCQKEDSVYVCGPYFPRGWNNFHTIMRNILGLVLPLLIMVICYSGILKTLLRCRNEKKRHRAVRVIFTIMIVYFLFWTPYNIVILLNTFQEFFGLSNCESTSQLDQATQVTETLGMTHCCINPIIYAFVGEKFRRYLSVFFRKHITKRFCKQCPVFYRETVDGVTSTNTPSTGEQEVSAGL
The conditions noted are these: indolopiperidines.

Where two headings read alike, the source gives them in different places.

For the compound `O=S(=O)(NCCCCCN1CCC(c2c[nH]c3ccccc23)CC1)c1ccc(Cl)c(Cl)c1` [compound 10], the Ki (in general, the dissociation constant of the complex between target and ligand, obtained from inhibition or displacement) (variation of X and R) was above 10 µM.
Turning to `O=C(/C=C/c1ccc(Cl)c(Cl)c1)NCCN1CCC(c2c[nH]c3ccccc23)CC1` [compound 30], the Ki (variation of chain length n) is above 10 µM.
